The values below come from PubChem BioAssay (NCI).

Among the test systems are PC-3 prostate; SK-MEL-2 melanoma; UACC-62 melanoma; ACHN renal; DU-145 prostate; SF-295 CNS; NCI/ADR-RES ovarian; OVCAR-5 ovarian; RXF 393 renal; HT29 colon.
Common to all, as to assay: NCI-60 cell line screen, 48 h

Several values for one entry are separate records, joined by “and”; a condition that tells them apart may be missing. Equal values may be shown once.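 Following 48 hours of exposure in 96-well plates, responses at five concentrations were used to interpolate endpoints linearly. GI50 is the concentration that inhibits growth by half. At the TGI there is no net growth.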

In the case of `COc1cc([C@@H]2c3cc4c(cc3[C@@H](O[C@@H]3O[C@@H]5CO[C@@H](c6cccs6)O[C@H]5[C@H](O)[C@H]3O)[C@H]3COC(=O)[C@H]23)OCO4)cc(OC)c1O`, the GI50 is 1.69 µM with PC-3 prostate; 1.33 µM in the experiment on SK-MEL-2 melanoma; 0.233 µM with UACC-62 melanoma; 0.288 µM with DU-145 prostate; 0.186 µM with SF-295 CNS; 19 µM with NCI/ADR-RES ovarian. The figures for the GI50 with OVCAR-5 ovarian, with RXF 393 renal and in the experiment with HT29 colon were 1.56 µM, 0.409 µM and 0.614 µM, respectively. Also, the TGI with PC-3 prostate is > 69.7 µM; with SK-MEL-2 melanoma, 4.84 µM; with UACC-62 melanoma, 3.3 µM; in the experiment on ACHN renal, 3.69 µM; in the experiment on DU-145 prostate, 3.43 µM; with SF-295 CNS it was 8.21 µM. The TGI is > 100 µM in the experiment on NCI/ADR-RES ovarian, 8.27 µM in the experiment on OVCAR-5 ovarian, 3.41 µM with RXF 393 renal and 3.66 µM in the experiment on HT29 colon.

For the molecule `N#Cc1c(NC(=O)CN2CCOCC2)sc2c1CCCC2`, the GI50 in the experiment with PC-3 prostate, in the experiment on SK-MEL-2 melanoma, in the experiment on UACC-62 melanoma, in the experiment with ACHN renal, with DU-145 prostate and in the experiment on SF-295 CNS was > 25 µM in each case. The GI50 in the experiment with NCI/ADR-RES ovarian, in the experiment with OVCAR-5 ovarian, in the experiment on RXF 393 renal and with HT29 colon was > 25 µM throughout. The TGI in the experiment on PC-3 prostate, with SK-MEL-2 melanoma, in the experiment with UACC-62 melanoma, in the experiment with ACHN renal, in the experiment with DU-145 prostate and with SF-295 CNS was > 25 µM in each case. The TGI with NCI/ADR-RES ovarian, in the experiment on OVCAR-5 ovarian, in the experiment with RXF 393 renal and with HT29 colon was > 25 µM each time.

Consider `CN(C)CCCNc1nccc(-c2c(-c3ccc(F)cc3)nn3cc(C(F)(F)F)ccc23)n1`, for which the GI50 with PC-3 prostate is 9.36 µM; in the experiment with SK-MEL-2 melanoma, 5.33 µM; in the experiment with UACC-62 melanoma, 4.88 µM; in the experiment on ACHN renal, 10.3 µM; with DU-145 prostate, > 16.6 µM; with SF-295 CNS, 6.91 µM. Further, the GI50 in the experiment with NCI/ADR-RES ovarian is 8.48 µM; in the experiment with OVCAR-5 ovarian, 11.2 µM; with RXF 393 renal it was 3.34 µM; in the experiment with HT29 colon, 6.58 µM. The TGI with PC-3 prostate is > 25 µM; in the experiment with SK-MEL-2 melanoma it was 14.2 µM; in the experiment with UACC-62 melanoma, 11.1 µM; with ACHN renal, > 25 µM; in the experiment with DU-145 prostate, > 25 µM; with SF-295 CNS, > 17.2 µM. For the same molecule, the TGI in the experiment with NCI/ADR-RES ovarian was > 25 µM; in the experiment with OVCAR-5 ovarian, > 25 µM; in the experiment with RXF 393 renal, 9.6 µM; in the experiment on HT29 colon, > 23.9 µM.

As for `Cc1ccccc1N=Nc1c(O)[nH]c2ccccc12`, the TGI with PC-3 prostate, in the experiment on SK-MEL-2 melanoma, in the experiment on UACC-62 melanoma, with ACHN renal, with DU-145 prostate and with SF-295 CNS was > 100 µM each time. Further, the TGI in the experiment on NCI/ADR-RES ovarian, in the experiment on OVCAR-5 ovarian, in the experiment on RXF 393 renal and in the experiment with HT29 colon was > 100 µM throughout.

As for `CC1=C(/C=C/C(C)=C/C=C/C(C)=C/C(=O)Nc2ccc(O)cc2)C(C)(C)CCC1`, the GI50 is 1.37 µM with PC-3 prostate; 4.17 µM in the experiment with SK-MEL-2 melanoma; 4.79 µM in the experiment with ACHN renal; 2.93 µM in the experiment on DU-145 prostate; 0.932 µM with SF-295 CNS; 2.29 µM with NCI/ADR-RES ovarian. The GI50 in the experiment on OVCAR-5 ovarian was 12.5 µM. Moreover, the TGI is 4.61 µM and 12.7 µM in the experiment with PC-3 prostate; 13.3 µM and 17.4 µM in the experiment with SK-MEL-2 melanoma; 6.94 µM and 7.34 µM in the experiment with UACC-62 melanoma; 16.3 µM and 17.7 µM in the experiment on ACHN renal; 12.1 µM and 21.4 µM with DU-145 prostate; 3.74 µM and 12.3 µM with SF-295 CNS. Besides, the TGI in the experiment on NCI/ADR-RES ovarian was 7.07 µM and 18.4 µM; with OVCAR-5 ovarian, 26.8 µM and 24 µM; in the experiment on RXF 393 renal it was 6.5 µM and 5.43 µM; with HT29 colon, 7.6 µM and 14.9 µM.

As to `COC(=O)c1ccc([N+](=O)[O-])c(O)c1`, the TGI in the experiment on PC-3 prostate, in the experiment with SK-MEL-2 melanoma, in the experiment on UACC-62 melanoma, in the experiment on ACHN renal, in the experiment on DU-145 prostate and with SF-295 CNS was > 100 µM in each case. The TGI in the experiment with NCI/ADR-RES ovarian, in the experiment with OVCAR-5 ovarian, in the experiment with RXF 393 renal and in the experiment on HT29 colon was > 100 µM each time.

As to `O=C1/C(=C\c2coc3ccccc3c2=O)c2ccccc2N1c1c(Cl)cccc1Cl`, the GI50 was 1.35 µM in the experiment on PC-3 prostate; 2.75 µM with SK-MEL-2 melanoma; 2.13 µM in the experiment on UACC-62 melanoma; 4.14 µM in the experiment with ACHN renal; 4.71 µM with DU-145 prostate; 4.22 µM with SF-295 CNS. Also, the GI50 with NCI/ADR-RES ovarian was 3.42 µM; in the experiment on OVCAR-5 ovarian, 20.9 µM; in the experiment with RXF 393 renal, 1.86 µM; in the experiment on HT29 colon, 3.05 µM. The TGI in the experiment with PC-3 prostate is 30.5 µM; with SK-MEL-2 melanoma, 6.04 µM; in the experiment on UACC-62 melanoma it was > 100 µM; in the experiment on ACHN renal it was > 100 µM; in the experiment with DU-145 prostate it was > 100 µM; in the experiment with SF-295 CNS, > 100 µM. Besides, the TGI in the experiment on NCI/ADR-RES ovarian is > 100 µM; in the experiment with OVCAR-5 ovarian it was > 100 µM; in the experiment on RXF 393 renal, 5.11 µM; with HT29 colon, > 100 µM.

Take `C#COc1cccc(Nc2ncnc3ncc(NC(=O)CCl)cc23)c1`: the GI50 was > 36.7 µM in the experiment on PC-3 prostate; > 57.7 µM in the experiment with SK-MEL-2 melanoma; > 36.1 µM in the experiment on UACC-62 melanoma; > 26.4 µM in the experiment with DU-145 prostate; > 52.9 µM with SF-295 CNS; > 24.7 µM with NCI/ADR-RES ovarian. The GI50 is > 47.4 µM with OVCAR-5 ovarian and > 62.5 µM with RXF 393 renal. For the same molecule, the TGI in the experiment with PC-3 prostate, in the experiment with SK-MEL-2 melanoma, with UACC-62 melanoma, with ACHN renal, with DU-145 prostate and in the experiment on SF-295 CNS was > 62.5 µM throughout. The TGI in the experiment on NCI/ADR-RES ovarian, in the experiment on OVCAR-5 ovarian, in the experiment on RXF 393 renal and in the experiment on HT29 colon was > 62.5 µM throughout.

Regarding `CN1c2ccccc2S(=O)(=O)n2c(COc3ccc(Cl)cc3)nnc21`, the TGI was > 100 µM in the experiment with PC-3 prostate; > 100 µM in the experiment on SK-MEL-2 melanoma; > 100 µM with UACC-62 melanoma; > 100 µM with ACHN renal; > 100 µM in the experiment with DU-145 prostate; 92.7 µM in the experiment on SF-295 CNS. Besides, the TGI with NCI/ADR-RES ovarian, in the experiment with OVCAR-5 ovarian, in the experiment with RXF 393 renal and in the experiment with HT29 colon was > 100 µM each time.
